Measurements from patent US20250296938A1, “Compounds that Interact with the Ras Superfamily for the Treatment of Cancers, Inflammatory Diseases, Rasopathies, and Fibrotic Disease” (SHY Therapeutics, LLC, priority 2018, published 2025).
Like-named read-outs stand apart in the source and are kept apart here.

What was measured:
Assay in all cases: Ras GTP binding domain inhibition assay (Cy3-GTP/Cy5-GTP competition)
KRas G12D mutant = target: T1, KRas G12D mutant (Homo sapiens, UniProt P01116, G12D); conditions: at 20 μM
T1 construct: fused on or other part: His tag, used for capture on nickel-coated plates
Method in brief: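 Ni-plate immobilised His-Ras, overnight 4 °C; cpd 20 μM (or dilution series for IC50), 1% DMSO, 3 h RT; optional His-Sos […] last hour; Cy3- or Cy5-GTP 100 nM, 45 min RT; 3× wash; bound fluorescence read.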

Rac-1 = Rac-1 (Homo sapiens, UniProt P63000)
Method in brief: (§1)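 First, His-tagged protein is coated on nickel wells overnight at 4 °C. Next, compound (20 μM single point or serial dilution) is added for 3 h at room temperature, with or without Sos exchange factor in the last hour. Finally, 100 nM labelled GTP binds for 45 min and retained signal is measured.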

Rho-A = Rho-A (Homo sapiens, UniProt P61586)
Method in brief: as §1

[1] = with SOS, read-out: KRas G12D mutant + SOS: % inh.
[2] = without SOS, read-out: KRas G12D mutant: % inh.
[3] = with SOS, read-out: Rac-1 + SOS: % inh.
[4] = without SOS, read-out: Rac-1: % inh.
[5] = with SOS, read-out: Rho-A + SOS: % inh.
[6] = without SOS, read-out: Rho-A: % inh.

Row | Compound | inhibition at 20 µM (KRas G12D mutant; [1]) [%] | inhibition at 20 µM (KRas G12D mutant; [2]) [%] | inhibition at 20 µM (Rac-1; [3]) [%] | inhibition at 20 µM (Rac-1; [4]) [%] | inhibition at 20 µM (Rho-A; [5]) [%] | inhibition at 20 µM (Rho-A; [6]) [%]
1 | COc1nc(-c2ccccn2)nc(Nc2cnn(C)c2)c1OC [drawing 929] | 0 | 0 | 0 | 1 to 25 | 1 to 25 | 0
2 | COCCNc1nc(-c2cn(C)cn2)nc2sc(-c3cc(OC)ccc3Cl)c(-c3ccc(OC)cc3)c12 [drawing 930] | 26 to 50 | 26 to 50 | 51 to 75 | 51 to 75 | 26 to 50 | 51 to 75
3 | COC1CCN(c2nc(-c3nccn3C)nn3cc(-c4ccccc4)c(-c4ccccc4)c23)C1 (stereo not drawn) [drawing 931] | 1 to 25 | 26 to 50 | 51 to 75 | 26 to 50 | 26 to 50 | 51 to 75
4 | COCCNc1nc(-c2cn(C)cn2)nc2sc(-c3cccc(OC)c3Cl)c(-c3ccc(OC)cc3)c12 [drawing 932] | 26 to 50 | 26 to 50 | 51 to 75 | 51 to 75 | 51 to 75 | 51 to 75
5 | CC(C)CN(C)C(=O)c1nc(-c2ccccn2)nc(O)c1O [drawing 933] | 26 to 50 | 26 to 50 | 26 to 50 | 51 to 75 | 51 to 75 | 26 to 50
6 | CN(Cc1ccccc1)C(=O)c1nc(-c2ccccn2)nc(O)c1O [drawing 934] | 26 to 50 | 26 to 50 | 26 to 50 | 51 to 75 | 51 to 75 | 51 to 75
7 | O=C(c1nc(-c2ccccn2)nc(O)c1O)N1CCOCC1 [drawing 935] | 26 to 50 | 26 to 50 | 26 to 50 | 51 to 75 | 26 to 50 | 26 to 50
8 | COc1cccc(Oc2nc(-c3ccccn3)nc(O)c2OC)c1 [drawing 936] | 51 to 75 | 76 to 100 | 76 to 100 | 76 to 100 | 51 to 75 | 51 to 75
9 | COc1c(O)nc(-c2ccccn2)nc1Oc1cccnc1 [drawing 937] | 51 to 75 | 51 to 75 | 76 to 100 | 76 to 100 | 76 to 100 | 76 to 100
10 | COc1c(O)nc(-c2ccccn2)nc1Oc1cnn(C)c1 [drawing 938] | 51 to 75 | 51 to 75 | 76 to 100 | 76 to 100 | 51 to 75 | 51 to 75
11 | COc1c(O)nc(-c2ccccn2)nc1Oc1ccc2ncccc2c1 [drawing 939] | 26 to 50 | 51 to 75 | 51 to 75 | 51 to 75 | 76 to 100 | 76 to 100
12 | COCC1CN(c2nc(-c3nccn3C)nc3sc(-c4cccc(OC)c4F)c(-c4ccc(OC)cc4)c23)C1 [drawing 940] | 51 to 75 | 51 to 75 | 0 | 0 | 51 to 75 | 51 to 75
13 | COc1ccc(-c2c(-c3cccc(OC)c3F)sc3nc(-c4nccn4C)nc(N4CCC(OC)C4)c23)cc1 (stereo not drawn) [drawing 941] | 51 to 75 | 51 to 75 | 0 | 0 | 51 to 75 | 51 to 75
14 | Cc1cn(C)c(-c2nc(O)c3scc(-c4ccccn4)c3n2)n1 [drawing 942] | 26 to 50 | 76 to 100 | 51 to 75 | 51 to 75 | 76 to 100 | 76 to 100
15 | Cc1cnc(-c2nc(O)c3scc(-c4ccccn4)c3n2)n1C [drawing 943] | 1 to 25 | 51 to 75 | 51 to 75 | 1 to 25 | 51 to 75 | 51 to 75
16 | O=C(NC1CCC1)c1nc(-c2ccccn2)nc(O)c1O [drawing 944] | 26 to 50 | 51 to 75 | 76 to 100 | 76 to 100 | 76 to 100 | 51 to 75
17 | COCCN(C)C(=O)c1nc(-c2ccccn2)nc(O)c1O [drawing 945] | 1 to 25 | 1 to 25 | 51 to 75 | 51 to 75 | 26 to 50 | 26 to 50

Row | Compound | inhibition at 20 µM (KRas G12D mutant; [1]) [%] | inhibition at 20 µM (KRas G12D mutant; [2]) [%] | inhibition at 20 µM (Rac-1; [3]) [%] | inhibition at 20 µM (Rac-1; [4]) [%] | inhibition at 20 µM (Rho-A; [5]) [%] | inhibition at 20 µM (Rho-A; [6]) [%]
18 | CC(C)CNC(=O)c1nc(-c2ccccn2)nc(O)c1O [drawing 946] | 1 to 25 | 51 to 75 | 76 to 100 | 51 to 75 | 51 to 75 | 51 to 75
19 | O=C(NC1CCCC1)c1nc(-c2ccccn2)nc(O)c1O [drawing 947] | 1 to 25 | 51 to 75 | 51 to 75 | 51 to 75 | 51 to 75 | 51 to 75
20 | COc1c(O)nc(-c2ccccn2)nc1Oc1ccccc1 [drawing 948] | 26 to 50 | 26 to 50 | 76 to 100 | 76 to 100 | 76 to 100 | 51 to 75
21 | COCCc1ccc(Oc2nc(-c3ccccn3)nc(O)c2OC)cc1 [drawing 949] | 26 to 50 | 51 to 75 | 76 to 100 | 51 to 75 | 76 to 100 | 76 to 100
22 | COc1ccc(Oc2nc(-c3ccccn3)nc(O)c2OC)cc1 [drawing 950] | 26 to 50 | 76 to 100 | 51 to 75 | 76 to 100 | 51 to 75 | 51 to 75
23 | Oc1nc(-c2cn3ccccc3n2)nc2c(-c3ccccn3)csc12 [drawing 951] | 1 to 25 | 26 to 50 | 26 to 50 | 1 to 25 | 1 to 25 | 1 to 25
24 | COC1CCN(c2nc(-c3nccn3C)nc3sc(-c4ccccc4CO)c(-c4ccccc4)c23)C1 (stereo not drawn) [drawing 952] | 51 to 75 | 51 to 75 | 0 | 0 | 26 to 50 | 0
25 | COC1CCN(c2nc(-c3nccn3C)nc3sc(-c4ccc(N)nc4C)c(-c4ccccc4)c23)C1 (stereo not drawn) [drawing 953] | 1 to 25 | 1 to 25 | 0 | 0 | 26 to 50 | 0
26 | COC1CCN(c2nc(-c3nccn3C)nc3sc(-c4ccc(CO)cc4)c(-c4ccccc4)c23)C1 (stereo not drawn) [drawing 954] | 51 to 75 | 1 to 25 | 0 | 0 | 0 | 0
27 | COC1CCN(c2nc(-c3nccn3C)nc3sc(-c4ccncc4C)c(-c4ccccc4)c23)C1 (stereo not drawn) [drawing 955] | 26 to 50 | 26 to 50 | 0 | 1 to 25 | 0 | 51 to 75
28 | O=C(NCc1ccccc1)c1nc(-c2ccccn2)nc(O)c1O [drawing 956] | 51 to 75 | 51 to 75 | 51 to 75 | 51 to 75 | 26 to 50 | 0
29 | COC1CCN(c2nc(-c3nccn3C)nc3sc(Br)c(-c4ccccc4)c23)C1 (stereo not drawn) [drawing 957] | 51 to 75 | 26 to 50 | 1 to 25 | 1 to 25 | 26 to 50 | 1 to 25
30 | COC1CCN(c2nc(-c3nccn3C)nc3sc(-c4ccnc(N(C)C)c4)c(-c4ccccc4)c23)C1 (stereo not drawn) [drawing 958] | 51 to 75 | 51 to 75 | 51 to 75 | 26 to 50 | 26 to 50 | 26 to 50
31 | COC(=O)c1nc(-c2nccn2C)nc(O)c1O [drawing 959] | 26 to 50 | 51 to 75 | 51 to 75 | 76 to 100 | 51 to 75 | 1 to 25
32 | Cn1ccnc1-c1nc(O)c(O)c(C(=O)NC2CCC2)n1 [drawing 960] | 26 to 50 | 51 to 75 | 51 to 75 | 76 to 100 | 51 to 75 | 26 to 50
33 | Cn1ccnc1-c1nc(O)c(O)c(C(=O)N2CCCCC2)n1 [drawing 961] | 1 to 25 | 26 to 50 | 1 to 25 | 51 to 75 | 51 to 75 | 26 to 50
34 | Cn1ccnc1-c1nc(O)c(O)c(C(=O)NC2CCCC2)n1 [drawing 962] | 26 to 50 | 51 to 75 | 51 to 75 | 51 to 75 | 76 to 100 | 26 to 50
